Where two headings read alike, the source gives them in different places.
Key:
[1] = target: B. taurus (heart) complex I (Bos taurus, UniProt P03887+P17694+P42026); assay: biochemical; format: biochemical; conditions: for IC50: B. taurus heart mitochondria, read-out: B. taurus Complex I IC50; for activity at 0.0001 µM / activity at 0.0005 µM / activity at 0.001 µM / activity at 0.0025 µM / activity at 0.005 µM / activity at 0.013 µM / activity at 0.025 µM / activity at 0.063 µM / activity at 0.125 µM / activity at 0.313 µM / activity at 0.625 µM / activity at 1.5 µM / activity at 3 µM / activity at 15 µM / activity at 37.5 µM / activity at 75 µM: read-out: B. taurus mitochondrial complex I activity; for Log IC50 B. taurus complex I: log10 of IC50 in µM, B. taurus mitochondria
Outline: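 Complex I activity followed as DCIP reduction (600 nm, 30 s reads, 15 min) with 80 μM NADH and 60 μM decylubiquinone in 25 mM KPi pH 7.5 containing 2 μM antimycin A and 2 mM KCN. Freeze-thawed mouse or bovine heart mitochondria at 0.2 mg/mL; initial-rate percent of solvent control, single-point 100 μM or dose-response.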

[2] = system: ben-1 mutant (ECA882) C. elegans; assay: microbe, parasite or virus in culture; conditions: Caenorhabditis elegans; for viability at 1 µM / viability at 2 µM / viability at 3.9 µM / viability at 15.6 µM / viability at 31.3 µM / viability at 62.5 µM / viability at 125 µM / viability at 250 µM / viability at 500 µM / viability at 1000 µM: read-out: C. elegans ben-1(e1880) development/viability
Outline: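 L1 larvae (~2 worms/μL in M9) in liquid NGM with 2-fold concentrated E. coli HB101, compound at 1% DMSO, 6 days at 20 °C shaking 165 rpm. Well images scored as summed worm-associated pixels, normalized to DMSO controls; relative viability averaged over at least three biological replicates.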

[3] = system: L1 wild-type C. elegans; assay: microbe, parasite or virus in culture; conditions: Caenorhabditis elegans, read-out: C. elegans KCN Survival Assay LC50, estimated from fitted dose-response curves; mean of at least two biological replicates
[4] = estimated from fitted dose-response curves
[5] = read-out: C. elegans (ben-1) Development & Viability Assay LC50
[6] = read-out: C. elegans ben-1 log10 LC50 (converted)

Sequence of B. taurus (heart) complex I (P03887 whole entry): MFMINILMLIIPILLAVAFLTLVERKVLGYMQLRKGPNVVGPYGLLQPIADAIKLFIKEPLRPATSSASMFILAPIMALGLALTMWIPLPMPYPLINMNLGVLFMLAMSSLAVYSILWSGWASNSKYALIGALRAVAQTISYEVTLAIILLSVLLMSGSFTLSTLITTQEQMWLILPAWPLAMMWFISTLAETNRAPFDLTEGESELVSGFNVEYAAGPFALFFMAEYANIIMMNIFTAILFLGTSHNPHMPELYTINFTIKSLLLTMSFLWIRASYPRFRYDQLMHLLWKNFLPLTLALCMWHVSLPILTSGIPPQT
Sequence of B. taurus (heart) complex I (P17694 34-463): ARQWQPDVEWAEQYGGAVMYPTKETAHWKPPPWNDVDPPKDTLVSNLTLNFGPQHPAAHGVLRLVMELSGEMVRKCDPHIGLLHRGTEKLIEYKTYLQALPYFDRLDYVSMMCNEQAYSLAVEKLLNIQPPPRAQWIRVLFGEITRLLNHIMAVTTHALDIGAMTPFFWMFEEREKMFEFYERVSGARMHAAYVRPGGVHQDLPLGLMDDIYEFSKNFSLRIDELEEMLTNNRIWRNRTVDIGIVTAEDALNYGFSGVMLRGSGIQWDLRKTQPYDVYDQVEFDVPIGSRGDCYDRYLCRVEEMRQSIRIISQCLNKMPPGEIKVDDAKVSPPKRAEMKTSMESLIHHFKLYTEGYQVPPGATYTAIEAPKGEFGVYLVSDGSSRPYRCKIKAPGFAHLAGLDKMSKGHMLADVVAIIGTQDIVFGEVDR
Sequence of B. taurus (heart) complex I (P42026 38-216): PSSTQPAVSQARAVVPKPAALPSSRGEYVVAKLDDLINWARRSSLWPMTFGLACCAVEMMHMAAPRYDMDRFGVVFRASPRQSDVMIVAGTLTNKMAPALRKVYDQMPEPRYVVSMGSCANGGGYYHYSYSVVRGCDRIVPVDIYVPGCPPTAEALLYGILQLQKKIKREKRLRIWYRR

| Structure (SMILES) | IC50 [1, 4] [µM] | activity at 0.0001 µM [1] [%] | activity at 0.0005 µM [1] [%] | activity at 0.001 µM [1] [%] | activity at 0.0025 µM [1] [%] | activity at 0.005 µM [1] [%] | activity at 0.013 µM [1] [%] | activity at 0.025 µM [1] [%] | activity at 0.063 µM [1] [%] | activity at 0.125 µM [1] [%] | activity at 0.313 µM [1] [%] | activity at 0.625 µM [1] [%] | activity at 1.5 µM [1] [%] | activity at 3 µM [1] [%] | activity at 15 µM [1] [%] | activity at 37.5 µM [1] [%] | Log IC50 B. taurus complex I [1] [µM] | LC50 [2, 5] [µM] | LC50 [2, 6] [µM] | LC50 [3] [µM] | also measured |
| --- | --- | --- | --- | --- | --- | --- | --- | --- | --- | --- | --- | --- | --- | --- | --- | --- | --- | --- | --- | --- | --- |
| Cc1cccc(OCCn2c(C)nc3ccccc32)c1 [Compound 6285199] | 4.97 | 98.3 | 97.3 | 100 | 95.3 | 95.1 | 97.1 | 95.3 | 88.5 | 87.7 | 83.8 | 79 | 67.9 | 54 | 18.4 | 5.61 | 0.70 | 205 | 205 | 14.7 | activity at 75 µM [1]: 1.08%; viability at 1 µM [2]: 99.9%; viability at 2 µM [2]: 91.6%; viability at 3.9 µM [2]: 97.6%; viability at 15.6 µM [2]: 95.5%; viability at 31.3 µM [2]: 93.8%; viability at 62.5 µM [2]: 97.6%; viability at 125 µM [2]: 100%; viability at 250 µM [2]: 64.8% |
| Cc1ccc(Cn2c(C(C)C)nc3ccccc32)cc1 [Compound 6586153] | – | – | – | – | – | – | – | – | – | – | – | – | – | – | – | – | 1.76 | 419 | 419 | 24.9 | IC50 [1]: 57.6 µM |
| Cc1nc2ccccc2n1Cc1ccccc1Cl [Compound 6707368] | 3.96 | – | – | – | – | – | – | – | – | – | – | – | – | – | – | – | 0.60 | 135 | 135 | 8.24 | – |
| Clc1ccc(Cn2cnc3ccccc32)c(Cl)c1 [Compound 6750659] | 2.6 | 93.1 | 93.8 | 91.7 | 100 | 91.7 | 94.7 | 92.7 | 89.8 | 83.5 | 77.1 | 78.3 | 60.6 | 42.8 | 8.04 | 1.6 | 0.41 | 42.2 | 42.3 | 4.28 | activity at 75 µM [1]: 1.94% |
| C=CCn1c(-c2ccc(N(C)C)cc2)nc2ccccc21 [Compound 6873298] | 21 | – | – | – | – | – | – | – | – | – | – | – | – | – | – | – | 1.32 | 40.6 | 40.6 | 5.19 | – |
| Clc1ccc(OCCn2cnc3ccccc32)c(Cl)c1 [Compound 7221649] | – | 92.5 | 88.5 | 89.7 | 97.8 | 98.8 | 94.3 | 92 | 90.2 | 86.5 | 88 | 83.9 | 85.6 | 77.8 | 33 | 7.81 | 1.03 | 37.2 | 37.2 | 13 | IC50 [1]: 10.7 µM; activity at 75 µM [1]: 3.92%; viability at 1 µM [2]: 86.6%; viability at 2 µM [2]: 85.6%; viability at 3.9 µM [2]: 87.8%; viability at 15.6 µM [2]: 91.2%; viability at 31.3 µM [2]: 64.6%; viability at 62.5 µM [2]: 3.9%; viability at 125 µM [2]: 37.3% |
| Nc1nc2ccccc2n1Cc1ccc(Br)cc1 [Compound 7313068] | 1.31 | – | – | – | – | – | – | – | – | – | – | – | – | – | – | – | 0.12 | 63.1 | 63.1 | 14.9 | – |
| Cc1nc2ccccc2n1Cc1ccc(C(C)C)cc1 [Compound 7353551] | 1.57 | – | – | – | – | – | – | – | – | – | – | – | – | – | – | – | 0.20 | 91.5 | 91.6 | 7 | – |
| CCCOc1ccc(Cn2cnc3ccccc32)cc1 [Compound 7355741] | 3.07 | 95.3 | 97.8 | 102 | 105 | 102 | 104 | 109 | 57.4 | 101 | 97.1 | 86 | 75.9 | 37 | 13.2 | 1.26 | 0.49 | 85.3 | 85.3 | 7 | activity at 75 µM [1]: 2.32% |
| Cc1ccc(OCCn2cnc3ccccc32)c(C)c1 [Compound 7706808] | 8.48 | 97.5 | 94.8 | 99.1 | 97 | 95.6 | 97.8 | 90.5 | 96 | 93.5 | 91.4 | 82.8 | 81.2 | 69.4 | 30.6 | 11.4 | 0.93 | > 1000 | > 500 | 12 | activity at 75 µM [1]: 6.37%; viability at 1 µM [2]: 100%; viability at 2 µM [2]: 96.2%; viability at 3.9 µM [2]: 97%; viability at 15.6 µM [2]: 98.9%; viability at 31.3 µM [2]: 97.3%; viability at 62.5 µM [2]: 93.8%; viability at 125 µM [2]: 89.7%; viability at 250 µM [2]: 94.6%; viability at 500 µM [2]: 76.7%; viability at 1000 µM [2]: 69.9%; LC50 ([2]; read-out: C. elegans ben-1 LC50): > 500 µM |
| Cc1ccccc1OCCCCn1cnc2ccccc21 [Compound 7732524] | 0.31 | 96.6 | 102 | 97 | 93.8 | 78.2 | 91.3 | 85.2 | 72.1 | 69.1 | 48.9 | 30.4 | 15.7 | 9.12 | 0.75 | 1.46 | -0.51 | 58.5 | 58.5 | 6.37 | activity at 75 µM [1]: 1.41%; viability at 15.6 µM [2]: 100%; viability at 31.3 µM [2]: 97%; viability at 62.5 µM [2]: 42.4%; viability at 125 µM [2]: 3.7%; viability at 250 µM [2]: 3.3%; viability at 500 µM [2]: 1.6%; viability at 1000 µM [2]: 1.3% |
| Cc1ccccc1OCCCn1c(C)nc2ccccc21 [Compound 7916923] | 6.67 | 98.7 | 101 | 103 | 101 | 107 | 99.6 | 102 | 104 | 90.7 | 96.6 | 92.7 | 79.4 | 70.6 | 24.7 | 6.64 | 0.82 | 142 | 143 | 12.1 | activity at 75 µM [1]: 2.1%; viability at 1 µM [2]: 95.8%; viability at 2 µM [2]: 94.9%; viability at 3.9 µM [2]: 93.4%; viability at 15.6 µM [2]: 96%; viability at 31.3 µM [2]: 89.5%; viability at 62.5 µM [2]: 86.2%; viability at 125 µM [2]: 67.3%; viability at 250 µM [2]: 2.7%; viability at 500 µM [2]: 2.9%; viability at 1000 µM [2]: 2.3% |
| Brc1ccccc1OCCCCn1cnc2ccccc21 [Compound 7924576] | 1.14 | 104 | 101 | 108 | 104 | 101 | 102 | 102 | 96.3 | 84.6 | 74.3 | 68 | 44.1 | 32 | 6.52 | 3.45 | 0.0569 | 58.6 | 58.6 | 6.73 | activity at 75 µM [1]: 3.05%; viability at 1 µM [2]: 99.9%; viability at 2 µM [2]: 91.7%; viability at 3.9 µM [2]: 96.6%; viability at 15.6 µM [2]: 87.8%; viability at 31.3 µM [2]: 65.5%; viability at 62.5 µM [2]: 54%; viability at 125 µM [2]: 3.7%; viability at 250 µM [2]: 4.7%; viability at 500 µM [2]: 2.1%; viability at 1000 µM [2]: 0.7% |
